# Values of other authors, collected in patent publication US20240207481A1, “KIT OF GEL-FORMING SOLUTIONS INTENDED FOR PREPARATION OF HYDROGEL BASED ON COVALENTLY CROSSLINKED HYDROXYPHENYL DERIVATIVE OF HYALURONAN FOR PREVENTION OF POSTOPERATIVE COMPLICATIONS RELATED TO FORMATION OF COLORECTAL ANASTOMOSIS, USE OF KIT, METHOD OF PREPARATION OF HYDROGEL AND USE THREREOF” (CONTIPRO A.S., priority 2020, published 2024).
smiles,measurement,setting,value
"Oc1cc(Cl)ccc1Oc1ccc(Cl)cc1Cl [Triclosan, 2,4,4′-trichloro-2′-hydroxydiphenyl ether]",solubility in water,,poorly soluble
same,solubility in polar organic solvents,"ethanol, chloroform, isopropanol",well soluble
